Where two headings read alike, the source gives them in different places. Some results are limits rather than exact numbers.

The conditions of series [1]: 5 µM.
For series [2] the following is noted: 5 µM. The source holds these as a separate data set.
The conditions of series [3]: for conversion to 001 in vivo: 2 mg/kg iv in mice; for plasma levels of 001: mouse, iv, 2 mg/kg. The protocol:
General Procedure for intravenous pharmacokinetic study in mice: Male C57/BL6 mice were used to evaluate each compound, with n=3 mice/time point. Animals were administered through intravenous route with solution formulation at 2 mg/kg dose. […] Following blood collection, immediately, animals were sacrificed, and vena-cava was cut open and blood was drained. […] Brain samples were collected from set of three mice at each time point. […] Brain samples were homogenized using 2 volumes of ice-cold PBS (pH-7.4) of brain weight. […] Concentrations of compound (or compound and metabolite) in mouse plasma and brain samples were determined by fit for purpose LC-MS/MS method.

A short description of series [4]: Plasma Stability Assay of Example A3, mouse plasma. The note with it: % of prodrug compound remaining, 37° C.
The format of series [5] is physicochemical. The note with it: DI water, 25° C., 0.5 mM.
The nature of series [6]: Plasma Stability Assay of Example A3, human plasma. To be noted: % of prodrug compound remaining, 37° C., 0.0 min.
Series [7] in a line: Hydrolysis Assay of Example A2, Condition 1 (SGF with pepsin, pH 1.5, 37° C.). The series is classed as physicochemical.
The format of series [8] is physicochemical. The protocol: The hydrolysis kinetics was under a certain temperature and measured by LCMS at a certain time interval. The corresponding LCMS chromatograms were recorded and the conversions were calculated. The hydrolysis conditions and the data were summarized in below table. LCMS spectra were obtained using Agilent 1200G1956A or SHIMADZU LCMS-2020. Standard LCMS conditions were as follows (running time 1.55 minutes):
Acidic condition: Mobile Phase A: 0.0375% TFA in water (v/v). Mobile Phase B: 0.01875% TFA in acetonitrile (v/v); Column: Kinetex EVO C18 30*2.1 mm, 5 μm.
Basic condition: Mobile Phase A: 0.025% NH3—H2O in water (v/v). Mobile Phase B: Acetonitrile; Column: Kinetex EVO C18 2.1×30 mm, 5 μm.
Conversion (%)=peak area 1/(peak area 1+peak area 2)*100%, peak area 1 is the integration of hydrolyzed product, peak area 2 is the integration of starting material.

Series [9] in a line: Pharmacokinetics of 043 and 001 in mice after oral 043 (75 mg/kg). Format: in vivo, male C57BL/6 mice. The protocol:
Total twelve male mice were used in this study. […] The formulation vehicle used was normal saline.
The plasma and brain concentration-time data of 043 and 001 was used for the pharmacokinetic analysis.
The extraction procedure for plasma/brain samples and the spiked plasma/brain calibration standards were identical:
A 25 μL of study sample plasma/brain (dilution applied to some samples) or spiked plasma calibration standard was added to individual pre-labeled micro-centrifuge tubes followed by 100 μL of internal standard prepared in acetonitrile (Glipizide-500 ng/mL) was added except for blank, where 100 μL of acetonitrile was added. Samples were vortexed for 5 minutes. Samples were centrifuged for 10 minutes at a speed of 4000 rpm at 4° C. Following centrifugation, 100 μL of clear supernatant was transferred in 96 well plates and analyzed using LC-MS/MS.

Series [10] is described as follows: Plasma Stability Assay of Example A4, rat plasma. The note with it: 37° C., % prodrug remaining.
Experimental: (§1) 50 uL aliquots of positive controls and test compounds spiked into rat or human plasma (n=2) were added to a pre-warmed plate (37° C.) and shaken at 50 rpm. At each respective time point, the reaction was stopped by adding 500 μL of acetonitrile containing internal standards (100 nM aprozolam, 200 nM caffeine, 100 nM tolbutamide). All samples were vortexed for 10 minutes, followed by centrifugation at 3,220 g for 30 minutes to precipitate proteins. 100 μL of the supernatant is transferred to a new plate. The supernatant will be diluted with ultrapure water according to the LC-MS signal response and peak shape.
Series [11] in a line: Plasma Stability Assay of Example A4, human plasma. To be noted: 37° C., % prodrug remaining.
Experimental: as §1
Setting [12] is: analyte as labelled, single oral administration of 043, 75 mg/kg.
Where [13] appears, read: brain, analyte as labelled, single oral administration of 043, 75 mg/kg.
Where [14] appears, read: plasma, analyte as labelled, single oral administration of 043, 75 mg/kg.

For `COc1ccc([C@@]23CCC(=NNC(=O)Nc4ccc(C(=O)O)cc4)C[C@@H]2N(C)CC3)cc1OC` (racemic) [Compound 259, 4-[[[(3aS,7aS)-3a-(3,4-dimethoxyphenyl)-1-methyl-2,3,4,5,7,7a-hexahydroindol-6-ylidene]amino]carbamoylamino]benzoic acid], the “Human Plasma Prodrug (%)” value is 100% in [1] (0 min); over 99% in [1] (15 min); 96.6% in [1] (30 min); 85.7% in series [1] (60 min); 70.0% in series [1] (120 min); 54.3% in [1] (240 min). Further, the “Mouse Plasma Prodrug (%)” value in [2] (0 min) is listed as 100%; in series [2] (15 min), 86.2%; in series [2] (30 min) it was 81.0%; in [2] (60 min), 67.6%; in series [2] (120 min), 38.7%; in series [2] (240 min), 19.8%.

Consider `COc1ccc([C@@]23CCC(OC(=O)CC(C)C)=C[C@@H]2N(C)CC3)cc1OC` [Compound 334, [(3aS,7aS)-3a-(3,4-dimethoxyphenyl)-1-methyl-3,4,5,7a-tetrahydro-2H-indol-6-yl] 3-methylbutanoate], for which the “conversion to 001 in vivo” value in [3] was “converts to 001 in vivo”. In series [3] (male, C57BL/6, mouse, in vivo), the “001 quantifiable in brain up to” value was 2 h and the “001 quantifiable in plasma up to” value is given as 60 min. Further, in series [3] (in vivo), the “plasma levels of 001” value is “not detectable”.

With `COc1ccc([C@@]23CCC(OC(=O)c4ccc(C(F)(F)F)cc4)=C[C@@H]2N(C)CC3)cc1OC` [Compound 310], the “Mouse Plasma Prodrug (%)” value is recorded as 100.0% in series [4] (0.0 min); 0.4% in series [4] (15 min); 0.1% in [4] (30 min); 0.1% in series [4] (60 min); 0.1% in series [4] (120 min); 0.1% in series [4] (240 min). Besides, the “Condition 2 Conversion (%)” value in [5] (time 1 min), in series [5] (time 5 min), in series [5] (time 30 min), in [5] (time 1 h), in series [5] (time 4 h) and in series [5] (time 24 h) was 0% each time. Also, the “Human Plasma Prodrug (%)” value in series [6] is reported as 100.0%. Moreover, the “Condition 1 Conversion (%)” value is on record as 0% in series [7] (SGF with pepsin pH 1.5, 37° C., 0.5 mM, time 1 min); 0% in [7] (SGF with pepsin pH 1.5, 37° C., 0.5 mM, time 5 min); 0% in series [7] (SGF with pepsin pH 1.5, 37° C., 0.5 mM, time 30 min); 0% in [7] (SGF with pepsin pH 1.5, 37° C., 0.5 mM, time 1 h); 0% in [7] (SGF with pepsin pH 1.5, 37° C., 0.5 mM, time 4 h); 0% in series [7] (SGF with pepsin pH 1.5, 37° C., 0.5 mM, time 24 h).

On to `CCC(=O)OC1=C[C@@H]2N(C)CC[C@]2(c2ccc(OC)c(OC)c2)CC1` [Compound 317, [(3aS,7aS)-3a-(3,4-dimethoxyphenyl)-1-methyl-3,4,5,7a-tetrahydro-2H-indol-6-yl] propanoate], for which, in [3], the “conversion to 001 in vivo” value is on record as “converts to 001 in vivo”. For the same compound, the “001 quantifiable in plasma up to” value in series [3] (male, C57BL/6, mouse, in vivo) worked out at 60 min. The “plasma levels of 001” value in series [3] (in vivo) is given as “not detectable”.

On to `COc1ccc([C@]23CCN(C)[C@H]2CC2(CC3)SCCS2)cc1OC` (racemic) [Compound 014, (7′aS)-3′a-(3,4-dimethoxyphenyl)-1′-methyl-spiro[1,3-dithiolane-2,6′-2,3,4,5,7,7a-hexahydroindole]], for which the “Notes (stability in words)” value in series [8] (pH = 2.0, 25° C., 0.5 mM, 0.01M HCl, 0-24 h) was “Stable”.

Consider `COc1ccc([C@]23CCN(C)[C@H]2CC2(CC3)OCCO2)cc1OC` (racemic) [Compound 013, 3′a-(3,4-dimethoxyphenyl)-1′-methyl-spiro[1,3-dioxolane-2,6′-2,3,4,5,7,7a-hexahydroindole]], for which the “Notes (stability in words)” value in series [8] was “Stable”. The “conversion to mesembrine” value in series [8] (acidic pH 2.0, 5° C.) is “not at 5 °C”; in [8] (acidic pH 2.0, 37 and 50° C.), “converted to mesembrine”.

Usually Cmax stands for the peak of the concentration-time curve. What is called Tmax is the time from dosing to the highest level. Consider `COc1ccc([C@]23CCN(C)[C@H]2CC2(CC3)OCCO2)cc1OC` [Compound 043], for which the “conversion to 001 in vivo” value in series [9] (75 mg/kg po in mice) is “efficiently converts to 001 in vivo”. Also, in series [9] (setting [12]), the “brain concentrations quantifiable up to” value is 4 h and the “brain exposure-Kp” value is under 1. In series [9] (setting [13]), the “AUClast” value was determined as 1787.23 ng·h/mL, the maximum concentration (Cmax) amounted to 2684.81 ng/mL and the “Tmax” value amounted to 30 min. For the same compound, in series [9] (setting [14]), the “AUClast” value was 2555.07 ng·h/mL, the peak concentration (Cmax) came out at 3392.53 ng/mL and the time of peak concentration (Tmax) came to 30 min.

As to `COc1ccc([C@@]23CCC(OC(C)=O)=C[C@@H]2N(C)CC3)cc1OC` [Compound 026, [(3aS,7aS)-3a-(3,4-dimethoxyphenyl)-1-methyl-3,4,5,7a-tetrahydro-2H-indol-6-yl] acetate], the “Conversion (%)” value in series [8] turned out to be 0%. In addition, in series [8], the “Notes (stability in words)” value is on record as “Stable;”. Besides, the “Rat Plasma Prodrug (%)” value in series [10] (time 0.0 min) was determined as 100.0%; in series [10] (time 10 min), 0.0%; in [10] (time 30 min), 0.0%; in series [10] (time 60 min) it was 0.0%; in [10] (time 120 min) it was 0.0%; in [10] (time 240 min) it was 0.0%. The “Human Plasma Prodrug (%)” value turned out to be 100.0% in series [11] (time 0.0 min); 40.3% in series [11] (time 10 min); 23.5% in series [11] (time 30 min); 12.0% in series [11] (time 60 min); 3.4% in series [11] (time 120 min); 0.8% in series [11] (time 240 min). Also, the “Condition 1 Conversion (%)” value in series [7] (pH 1.5) was 0%.

Source of the values: patent publication US12269800B2, “Delivery of therapeutic alkaloid compounds” (priority 2021, dated 2025).
